# According to US12403132B2, “Methods of treating bone marrow failure syndromes and compositions for use in the same” (The Board of Trustees of the Leland Stanford Junior …, priority 2020, dated 2025):
# Like-named read-outs stand apart in the source and are kept apart here.
# Experiments:
# CD235+ erythroblasts = test: CD235+ erythroid expansion of differentiating human cord blood CD34+ progenitors (shRPS19/shRPL11 DBA models), flow cytometry; format: cell-based; settings: for CD235+ erythroid expansion in RPS19-insufficiency, % of control: 6.6% of controls (shLuc) untreated; for increase of erythroid expansion in RPS19-insufficiency: concentrations published to block TGFβ signaling, 15 days; for fold increase of erythroid expansion in response to SD208: 5 μM
# Procedure: FIG. 7. […] (a) Differentiating cord blood CD34+ progenitors were transduced with shRNA against luciferase or RPS19 and treated with inhibitors at working concentrations for TGFβ inhibition every three days. Cells were counted and CD235+ erythroid cells were assessed by flow cytometry after 15 days. (b) Prior to flow cytometry, 5000 cells per group were taken from differentiating cultures for NLK kinase assay. (c) CD34+ progenitors were transduced with shRNA against luciferase or RPS19 and non-targeting or siRNA against NLK. After sorting, samples were split into two groups and either treated with vehicle or SD208 every three days. After 15 days cells were counted and subject to flow cytometry to compare the expansion of maturing CD235+ erythroid (left panel) and CD11b+ myeloid cells (right panel). (d) Cord Blood CD34+ progenitors were transduced with shRNA against luciferase (left panel) or RPS19 (right panel) differentiated in erythroid media for 15 days alone, or in the presence of SB525334 or SD208 at 5 μM. Cells were counted and CD235+ erythroid (D—upper) and CD11b+ myeloid cell (D—lower) percentages were determined by flow cytometry. The number of erythroid or myeloid cells is expressed as a percentage of the number of that lineage with no cytokine or drug treatment.
# FIG. 8. […] Human cord blood CD34+ progenitors were transduced with lentivirus co-expressing GFP with shRNA against luciferase (shLuc), RPS19 (shRPS19) or RPL11 (shRPL11). After 36 hours cells GFP+ cells were differentiated in erythroid media in the presence or absence of 5 μM SD208 for 15 days. Cells were counted and assessed for cell surface expression of CD235. (a) The percentage of CD235+ cells was multiplied by the cell count and values were compared as a percentage of untreated controls. (b) Normalizing values relative to untreated RPS19-insufficiency progenitors facilitates direct comparison of erythropoiesis between untreated and SD208-treated cultures. (c) Approximately 3000 cells were removed from differentiating treatments at day 6 and NLK activity was assessed. Values were normalized to reflect a fold induction relative to untreated controls. (d) Lin-Kit+ hematopoietic progenitors were obtained from three mouse embryos expressing tetracycline-inducible shRNA against RPS19 at day E14.5 or three untreated mice, and thee mature RPL11^+/+ or three mature RPL11^+/lox mice treated with tamoxifen for eight weeks. Cells were grown in the presence or absence of doxycycline and/or SD208 for eight days prior to counting and assessing for ter119 surface expression. Values were expressed as a percentage relative to untreated controls (e) and directly comparing the effect of SD208 on erythropoiesis in ribosomal-insufficiency by expressing values relative to untreated ribosome-insufficient cultures (f). At day 5 approximately 3000 cells were assayed for NLK kinase assay (g). CD34+ HSPCs were isolated from three healthy control and three DBA patient mononuclear bone marrow aspirates by magnetic bead sorting and differentiated in the presence or absence of SD208 for 14 days. After counting the total cell population, the ratio of CD235+ erythroblasts was determined by flow cytometry and number of CD235+ erythroblasts calculated. This was expressed as a percentage of the average number of erythroid cells present in untreated healthy controls. (h) The direct effect of SD208 on erythroid expansion in DBA patient samples was calculated following normalization of untreated DBA patient samples as 1-fold, (i) At day five, 3000 cells from each of the differentiating cultures was analyzed for NLK activity by kinase assay and are expressed as a fold induction relative to untreated healthy controls.
# [1] = system: c-Kit+ erythroid progenitors in murine RPS19-insufficiency; test: c-Kit+ erythroid expansion screen, tet-shRPS19 murine fetal liver cells (Cell titer-Glo); format: cell-based, mouse; settings: for rescue of c-Kit+ erythroid expansion: 10 μM, murine RPS19-insufficient model; for EC50: read-out: EC50 of rescue of erythroid growth in murine RPS19-insufficiency
# NLK 3′UTR = test: Luciferase fused to NLK 3′UTR in differentiating HSPCs; format: cell-based, human
# Procedure: We generated a series of truncated NLK 3′UTRs fused to the luciferase gene and transduced them into control and RPS19-insufficient differentiating HSPCs. Cells were treated with increasing concentrations of ginsenoside Rb1 or metformin and luciferase activity assessed.
# miR-208 = test: miRNA expression in vehicle-, metformin- and ginsenoside Rb1-treated HSPCs; format: cell-based, human
# Excerpt: The abundance of let-7, miR-30 miR-144 and miR-132 were expressed 40.1-, 2.2-, 5.0- and 18.3-fold higher than miR-208, whereas miR-208 was expressed 1.6- and 2.1-fold higher than miR-199 and miR-499. MiR-26a (induced by metformin) expression was 1.4-fold higher than miR-208.
# NLK = NLK expression in differentiating human progenitors (qRT-PCR, Western blot); format: cell-based; design: reduction of endogenous NLK expression: concentration or dose not given beside the values
# [2] = ginsenoside Rb1, metformin, alone and combined
structure (smiles),measurement,setting,value
Cc1cccc(-c2nn3c(c2-c2ccnc4ccc(C(N)=O)cc24)CCC3)n1 [Galunisertib],"CD235+ erythroid expansion in RPS19-insufficiency, % of control",CD235+ erythroblasts,21%
same,increase of erythroid expansion in RPS19-insufficiency,CD235+ erythroblasts,3.2 fold
NC(=O)c1ccc(-c2nc(-c3ccc4c(c3)OCO4)c(-c3ccccn3)[nH]2)cc1 [SB431542],rescue of c-Kit+ erythroid expansion,[1],significantly rescued
same,EC50,[1]; Mus musculus,5000 nM
same,"CD235+ erythroid expansion in RPS19-insufficiency, % of control",CD235+ erythroblasts,21%
same,increase of erythroid expansion in RPS19-insufficiency,CD235+ erythroblasts,3.2 fold
Fc1ccc(Cl)cc1-c1nc(Nc2ccncc2)c2nccnc2n1 [SD208],rescue of c-Kit+ erythroid expansion,[1],significantly rescued
same,EC50,[1],700 nM
same,"CD235+ erythroid expansion in RPS19-insufficiency, % of control",CD235+ erythroblasts,41.5%
same,fold increase of erythroid expansion in response to SD208,CD235+ erythroblasts; RPL11-insufficiency,6.9 fold
same,"erythroid expansion, % of untreated controls","CD235+ erythroblasts; RPL11-insufficiency, SD208 5 μM, 5.8% untreated",36.7%
same,fold increase of erythroid expansion in response to SD208,CD235+ erythroblasts; RPS19-insufficiency,4.7 fold
same,"erythroid expansion, % of untreated controls","CD235+ erythroblasts; RPS19-insufficiency, SD208 5 μM, 8.7% untreated",38.7%
same,"RPS19-insufficient erythroid expansion, fold of non-TGFβ-treated cells","CD235+ erythroblasts; TGFβ-treated, SD208 5 μM",4.1 fold
same,increase of erythroid expansion in RPS19-insufficiency,CD235+ erythroblasts,6.3 fold
CC(C)=CCC[C@](C)(O[C@@H]1O[C@H](CO[C@@H]2O[C@H](CO)[C@@H](O)[C@H](O)[C@H]2O)[C@@H](O)[C@H](O)[C@H]1O)[C@H]1CC[C@]2(C)[C@@H]1[C@H](O)C[C@@H]1[C@@]3(C)CC[C@H](O[C@@H]4O[C@H](CO)[C@@H](O)[C@H](O)[C@H]4O[C@@H]4O[C@H](CO)[C@@H](O)[C@H](O)[C@H]4O)C(C)(C)[C@@H]3CC[C@]12C [ginsenoside Rb1],reduction of luciferase activity (NLK 3′UTR),NLK 3′UTR; 50 mM ginsenoside Rb1,35.9%
same,induction of miR-208,miR-208; ginsenoside Rb1-treated HSPCs,1.9 fold
same,reduction of NLK protein,"NLK; differentiating HSPCs, 5 mM",31.5%
same,suppression of NLK expression,NLK; [2],34.6%
same,reduction of endogenous NLK expression,NLK; ginsenoside Rb1-treated differentiating HSPCs (miRNA sponge experiment),44.8%
same,suppression of NLK expression,"NLK; miRNA species transduced into differentiating HSPCs, ginsenoside Rb1 for comparison",34.6%
CN(C)C(=N)N=C(N)N [metformin],reduction of luciferase activity (NLK 3′UTR),NLK 3′UTR; metformin,67.5%
same,"induction of miR-499, miR-208, miR-132",miR-208; metformin-treated HSPCs,None of these miRNAs were induced
same,suppression of NLK expression,NLK; [2],59.4%
